{"source": "patent US12391799B2", "about": "“Peptoid polymers and methods of use” (X-Therma, Inc., priority 2017, dated 2025)", "key": {"[1]": {"test": "Vitrification screening assay (critical EG concentration)", "format": "physicochemical", "details": "for Critical Ethylene Glycol Concentration: lowest EG for complete vitrification of 20 μL sample, 5 mg/mL peptoid in formulation, liquid nitrogen immersion", "method": "As another means of increasing the throughput of library analysis, a vitrification screening assay was performed to evaluate anti-icing efficacy. For these experiments the compounds named “Compound 11,” “Compound 12,” “Compound 25,” Compound 26,” “Compound 27,” “Compound 28,” “Compound 60,” “Compound 62,” “Compound 63,” “Compound 64,” “Compound 69,” “Compound 70,” “Compound 71,” “Compound 72,” “Compound 73,” “Compound 74,” “Compound 75,” “Compound 76,” “Compound 77,” “Compound 78,” “Compound 81,” “Compound 82,” “Compound 83,” “Compound 84,” and “Compound 85” were tested.\nFor these experiments, 20 μL samples were flash frozen by liquid immersion in liquid nitrogen. Ethylene glycol (EG) concentrations between 5% and 25% (v/v) were used. A concentration of 5 mg/mL of peptoid polymer compounds were used in formulation. Table 12 lists the lowest concentration of EG necessary to bring about complete vitrification of a 20 μL sample with peptoid polymer in formulation, referred to as the “critical EG concentration.” A sample of formulation without the presence of a peptoid polymer was only able to bring about vitrification at 20% or more EG. Peptoid polymers of interest were able to bring about vitrification within formulas containing EG when the concentration of EG was lower than 20%."}, "K562 cells [2]": {"test_system": "K562 cells", "test": "K562 viability after storage at −20° C. for 3 days (Alamar Blue)", "format": "cell-based", "details": "1% peptoid in XT Formula, K562 stored at −20° C. for 3 days, vs. XT Formula alone", "method": "Several compounds were examined in XT Formula at 1% concentration (i.e., 1% peptoid polymer concentration) for their ability to increase the viability of cells subjected to super-cooled storage. XT Formula contains HTK buffer, among other components. In particular, the effects of these compounds on the viability of K562 cells stored at −20° C. for 3 days were evaluated. An Alamar Blue assay was used to assess cell viability 7 days after stored cells were thawed."}, "HEK293 cells": {"test_system": "HEK293 cells", "test": "HEK293 survival after storage at −80° C. for 3 days (Alamar Blue)", "format": "cell-based, human", "details": "1% peptoid in XT Formula, HEK293 stored at −80° C. for 3 days, vs. XT Formula alone", "method": "Several compounds were examined in XT Formula at 1% concentration (i.e., 1% peptoid polymer concentration) for their effects on the cryopreservation of HEK293 cells, an adherent cell line derived from human embryonic kidney cells. In particular, the effects of these compounds on the survival of HEK293 cells stored at −80° C. for 3 days were evaluated. An Alamar Blue assay was used to assess cell survival 1 day after stored cells were thawed. A 10% DMSO formula and DMEM cell media only were used as controls."}, "K562 cells [3]": {"test_system": "K562 cells", "test": "Cell toxicity assay in K562 cell culture", "format": "cell-based", "details": "24 hours at 37° C. and 5% CO2", "protocol": "The cytotoxicity of several compounds were evaluated using a typical cell toxicity assay in K562 cell culture. […] As a positive control, some cells were incubated without any peptoid polymer (DMEM). For a negative control, cells were incubated with DMSO (DMEM+10% DMSO)."}, "HEK 293 cell line": {"test_system": "HEK 293 cell line", "test": "Cell-based cytotoxicity assay (MTT)", "set-up": "species or system human", "details": "serial dilutions in culture media, 37° C., about 3 to 5 days", "method": "A Tecan Genesis Robotic Workstation was used to prepare solutions in 96- and 384-well plates. Solutions contained culture media, buffers, a cryoprotectant composition (Compound 12) or DMSO. Solutions were adjusted to the desired pH. Serial dilutions were performed to obtain solutions containing various concentrations of Compound 12 and DMSO. Control experiments were performed using only culture media.\nFor these experiments, cells were seeded at low density (i.e., 10% confluence), exposed to solutions containing Compound 12 or DMSO, and placed in a 37° C. incubator. The cells were allowed to grow until control cells that were treated only with empty vehicle approached 70% confluence (typically about 3 to 5 days). Assessment for compound cytotoxicity was via MTT assay."}}, "note": "Numbered stars: 1 amine (or outer) side, 2 acyl side, 3 side chain; on linkers, the order of the positions; unused ones are H or OH. Square brackets hold non-standard residues; d marks the D form. Peptide text beside a SMILES is read from it. X1 = CC(O)CN(CC(=O)[*:2])[*:1]; NPrGly = CCCNCC(=O)O; Sar = CNCC(=O)O", "data": [{"smiles": "CCC(C)NCC(=O)N(CC(=O)N(CCOC)CC(=O)N(CCOC)CC(=O)N(CC(=O)N(CC(=O)N(CCOC)CC(=O)N(CCOC)CC(=O)N(CC(=O)N(CC(N)=O)C(C)CC)C(C)CC)C(C)CC)C(C)CC)C(C)CC", "note": "(stereo not drawn) [Compound 62, Nsb-Nsb-Nmo-Nmo-Nsb-Nsb-Nmo-Nmo-Nsb-Nsb]", "values": [{"measurement": "EG required to permit vitrification", "setting": "[1]; 20 μL sample, 5 mg/mL peptoid, formulation without peptoid needs 20% or more EG", "result": "required significantly less EG in order to permit vitrification"}, {"measurement": "Critical Ethylene Glycol Concentration", "setting": "[1]", "result": "12.5% (ν/ν)"}, {"measurement": "cell viability 7 days after thaw", "setting": "K562 cells [2]", "result": "improved cell viability compared to XT Formula alone"}, {"measurement": "cell survival 1 day after thaw", "setting": "HEK293 cells", "result": "improved cell survival compared to XT Formula alone"}, {"measurement": "cytotoxicity (cell persistence)", "setting": "K562 cells [3]; 1% concentration", "result": "persisted about as well as cell incubated in cell culture media alone (DMEM)"}]}, {"smiles": "CCC(C)N(CC(=O)N(CC(=O)N(CC(=O)N(CC(=O)N(CC(=O)N(CC(=O)N(CC(N)=O)CC(C)O)CC(C)O)C(C)CC)C(C)CC)CC(C)O)CC(C)O)C(=O)CN(C(=O)CN(CC(C)O)C(=O)CNCC(C)O)C(C)CC", "note": "(stereo not shown) [Compound 11]", "values": [{"measurement": "Critical Ethylene Glycol Concentration", "setting": "[1]", "result": "15.0% (ν/ν)"}, {"measurement": "cell survival 1 day after thaw", "setting": "HEK293 cells", "result": "improved cell survival compared to XT Formula alone"}]}, {"smiles": "C[S+](C)[O-]", "note": "[DMSO, dimethyl sulfoxide, reference compound]", "values": [{"measurement": "toxicity by MTT assay", "setting": "HEK 293 cell line", "result": "did not allow for warm survival for an extended period of time at any concentration above 0.5% (v/v)"}, {"measurement": "cytotoxicity (cell persistence)", "setting": "K562 cells [3]; DMEM+10% DMSO", "result": "suffered significant toxicity"}]}, {"smiles": "CNCC(=O)N(C)CC(=O)N(C)CC(=O)N(CC(=O)N(CC(=O)N(CC(=O)N(C)CC(=O)N(C)CC(=O)N(C)CC(=O)N(CC(N)=O)CC(C)O)CC(C)O)CC(C)O)CC(C)O", "note": "(stereo not shown) [Compound 15] (H-[Sar][Sar][Sar][X1][X1][X1][Sar][Sar][Sar][X1]-NH2)", "values": [{"measurement": "cytotoxicity (cell persistence)", "setting": "K562 cells [3]; 1% concentration", "result": "persisted about as well as cell incubated in cell culture media alone (DMEM)"}]}, {"smiles": "CNCC(=O)N(C)CC(=O)N(CC(=O)N(CC(=O)N(C)CC(=O)N(C)CC(=O)N(CC(=O)N(CC(=O)N(C)CC(=O)N(C)CC(N)=O)CC(C)O)CC(C)O)CC(C)O)CC(C)O", "note": "(stereo not drawn) [Compound 64, Nme-Nme-Nhp-Nhp-Nme-Nme-Nhp-Nhp-Nme-Nme] (H-[Sar][Sar][X1][X1][Sar][Sar][X1][X1][Sar][Sar]-NH2)", "values": [{"measurement": "Critical Ethylene Glycol Concentration", "setting": "[1]", "result": "17.5% (ν/ν)"}, {"measurement": "cell survival 1 day after thaw", "setting": "HEK293 cells", "result": "improved cell survival compared to XT Formula alone"}]}, {"smiles": "CCC(C)NCC(=O)N(CC(=O)N(CCO)CC(=O)N(CCO)CC(=O)N(CC(=O)N(CC(=O)N(CCO)CC(=O)N(CCO)CC(=O)N(CC(=O)N(CC(N)=O)C(C)CC)C(C)CC)C(C)CC)C(C)CC)C(C)CC", "note": "(stereo not drawn) [Compound 74, Nsb-Nsb-Nhe-Nhe-Nsb-Nsb-Nhe-Nhe-Nsb-Nsb]", "values": [{"measurement": "Critical Ethylene Glycol Concentration", "setting": "[1]", "result": "15.0% (ν/ν)"}, {"measurement": "cell viability 7 days after thaw", "setting": "K562 cells [2]", "result": "improved cell viability compared to XT Formula alone"}]}, {"smiles": "CCCNCC(=O)N(CCC)CC(=O)N(CC(=O)N(CC(=O)N(CCC)CC(=O)N(CCC)CC(=O)N(CC(=O)N(CC(=O)N(CCC)CC(=O)N(CCC)CC(N)=O)CC(C)O)CC(C)O)CC(C)O)CC(C)O", "note": "(stereo not drawn) [Compound 27, Npr-Npr-Nhp-Nhp-Npr-Npr-Nhp-Nhp-Npr-Npr] (H-[NPrGly][NPrGly][X1][X1][NPrGly][NPrGly][X1][X1][NPrGly][NPrGly]-NH2)", "values": [{"measurement": "Critical Ethylene Glycol Concentration", "setting": "[1]", "result": "12.5% (ν/ν)"}, {"measurement": "cell viability 7 days after thaw", "setting": "K562 cells [2]", "result": "improved cell viability compared to XT Formula alone"}, {"measurement": "cell survival 1 day after thaw", "setting": "HEK293 cells", "result": "improved cell survival compared to XT Formula alone"}]}, {"smiles": "CCC(C)NCC(=O)N(CC(=O)N(CC(=O)N(CC(=O)N(CC(=O)N(CC(=O)N(CC(=O)N(CC(=O)N(CC(=O)N(CC(N)=O)C(C)CC)C(C)CC)C(C)CO)C(C)CO)C(C)CC)C(C)CC)C(C)CO)C(C)CO)C(C)CC", "note": "(stereo not drawn) [Compound 75, Nsb-Nsb-Nyp-Nyp-Nsb-Nsb-Nyp-Nyp-Nsb-Nsb]", "values": [{"measurement": "Critical Ethylene Glycol Concentration", "setting": "[1]", "result": "15.0% (ν/ν)"}, {"measurement": "cell survival 1 day after thaw", "setting": "HEK293 cells", "result": "improved cell survival compared to XT Formula alone"}]}]}
